Assays:
[1] = tested on: platelets (3 times concentrated PRP), cyclic AMP; test: Level of cyclic AMP in platelets; format: cell-based; details: room temperature, 5 min
Procedure: PRP (platelet rich plasma) was prepared by the predetermined method and it was centrifugated for 20 min at 700XG to obtain a supernatant liquid named PPP (platelet poor plasma). The precipitate was re-floated in 1/3 times by volume of PPP to prepare 3 times concentrated PRP.
In the thus prepared concentrated PRP, each aqueous solution of the present substances of a pre-determined concentration (in this case, Specimens Nos. 4, 7 and 8) and an aqueous physiological saline solution, and the mixture was incubated at room temperature for 5 min. Then, the procedures of boiling, homogenating and centrifugating were carried out in this order, and 50 μl of the supernatant liquid was used for measuring cyclic AMP. The measurement was carried out following the method of Gilman. As a positive control, PGE1 was used.

male SHR rats = test: Effect of aspirin on the hypotensive action; format: in vivo, rat (SHR); details: 100 mg/kg p.o., after 6 hours; for Alteration of blood pressure, Case (b): with aspirin 200 mg/kg before and after; for Alteration of blood pressure, Case (a): without aspirin
Procedure: It is known that PGs are produced from arachidonic acid and the conversion of arachidonic acid into PGG2 is mediated by cyclooxygenase. Also it is known that aspirin inactivates cyclooxygenase, and that the […] of PGs is completely stopped by the administration of aspirin to a mammal.
Accordingly, the following experiment was carried out: To groups of male SHR rats of 30 to 40 weeks after birth, (a) one of the present substance was forcibly administered orally at 100 mg/kg as a solution in distilled water or an aqueous suspension in 2% solution of carboxymethylcellulose or (b) aspirin was forcibly administered orally, before and after one hour of the administration of the present substance, at 200 mg/kg. The blood pressure of the thus treated rats was measured with the time passage.

male Sprague-Dowley rats = test: Leakage of dye-staff after skin stimulation with histamine and PGE1; format: in vivo; details: 1000 mg/kg p.o.; with histamine + PGE1
Procedure: To the three groups of male Sprague-Dowley rats of the total six groups, the respective present substances (Specimens Nos. 4, 7 and 8) were forcibly administered by oral route at the rate of 1000 mg/kg, the other three groups being administered nothing at this time. After 60 min of the administration, a mixture of PGE1 (2.5×10^-11 mol/animal) and histamine (2×10^-8 mol/animal) was intracutaneously injected under light […] into the shaved skin of an abdominal part of four groups of the rats including three groups administered with the present substance.

[2] = tested on: streptozotocin diabetic rats; test: Blood sugar of diabetic rats; format: in vivo, male Sprague-Dowley rats; details: 100 mg/kg p.o., 6 hours, diabetic rat; not administered 412.1, normal 76.7
Procedure: (§1) Groups of male Sprague-Dowley rats of body weight of about 200 g are used for the present experiments. Some groups of the rats were intravenously administered with streptozotocin at 80 mg/kg one to three months in advance of the beginning of the present experiment to be in a state of diabetes mellitus. Those rats of the same strain, the same sex and the same age without being administered with streptozotocin were used as control.
(§2) The present substances (Specimens Nos. 4, 7 and 8) were respectively administered to the groups of rats suffering from the artificial diabetes mellitus forcibly by oral route at a rate of 100 mg/kg as an aqueous solution in distilled water.
After 6 hours of the administration of the present substance, blood specimen was collected from the rat under anesthesia by ether in an amount of 0.5 ml/animal, and the content of blood sugar was measured by the enzymatic method.

thoracic aorta, PGI2 = test: PGI2 production in arterial tissue of diabetic rats; format: in vivo, male Sprague-Dowley rats; details: 100 mg/kg p.o., diabetic rat; not administered 0.07, normal 0.26
Procedure: as §1, §2
In the next place, the amount of prostaglandin I2 produced in the arterial tissue was measured as follows:
Thoracic aorta of the rat was rapidly extirpated, washed with Krebs' buffer solution at a temperature of 4° C. and cut into thin rings of 1 to 2 mg in weight. Then, into 200 microliters of Krebs' buffer solution, 60 mg of the thus cut aorta were added and the mixture was incubated for 3 min at 22° C.
The amount of prostaglandin I2 (PGI2) produced by the cut aorta was determined on the supernatant liquid (1 to 10 microliters) of the above-mentioned incubated culture in the same manner as in Example 2 using the suppressing action of platelet aggregation as an index, however, using adenosine diphosphate as the agglutinating agent. After preparing a standard calibration curve using an authentic specimen of PGI2, the content of PGI2 of the above-mentioned supernatant liquid was obtained from the standard curve in ng/mg of wet weight of the arterial tissue.

dog's stomach = format: in vivo, Beagle dog; details: dog, in vivo
Procedure: Five grams of the present substance (each of Specimens Nos. 1, 2, 3, 4, 5, 6, 7, 8, 9, 10 and 11) and of aspirin were respectively administered to each Beagle of body weight of 9 to 12 kg as an aqueous suspension in distilled water of adjusted pH of 3, and after 90 min of the administration, the state of hemorrhage in the dog's stomach was examined.

[3] = tested on: Salmonella typhimurium TA 100; test: Mutagenicity, reversion assay, TA 100; format: cell-based; details: 5,000 μg/plate; control 149
Procedure: (ii) The strains TA 98 and TA 100 (both are histidine requiring) of Salmonella typhimurium were used in the reversion assay.
Into 2 ml of a soft agar culture medium (the medium itself contains 6 g of sodium chloride and 6 g of agar in 1000 ml of distilled water) to which one tenth by volume of an aqueous solution of 0.5 mM of biotin and 0.5 mM of histidine had been added, 0.1 ml of the bacterial suspension and 0.1 ml of an aqueous solution of the present substance were admixed and the mixture was layered on the minimum agar culture medium. After 2 days of incubation at 37° C., the number of revertant colonies was counted. Furylfuramide (AF-2) was used as the positive control.

[4] = tested on: washed platelets, malondialdehyde; test: Level of malondialdehyde (MDA) of platelets; format: cell-based, human; details: Ca ionophore A-23187, 5 min, 37° C.
Procedure: PRP collected from human blood was centrifugated and washed to be "washed platelets". After adding one of the present substances (Specimens Nos. 4, 7 and 8) to the washed platelets, Caionophore A-23187 was further added to them and the mixture was incubated for 5 minutes at 37° C. Then, thiobarbituric acid was added to the incubated mixture, as a colour developer, and the mixture was extracted with a solvent mixture of methanol and butanol. The absorption at 535 nm was colorimetrically read to determine the amount of malondialdehyde (MDA). […] From this fact also, the participation of the present substance in the metabolism of PGs is presumable.

Row | SMILES | level of intra-platelet cyclic AMP (FIG. 7) [1] | Alteration of blood pressure, Case (b) (male SHR rats) [mmHg] | Alteration of blood pressure, Case (a) (male SHR rats) [mmHg] | Absorbance at 620 nm (dye leakage) (male Sprague-Dowley rats) | Blood sugar [2] [mg/100 ml] | PGI2 (thoracic aorta, PGI2) [ng/mg wet tissue] | hemorrhage in the stomach (dog's stomach) | Number of revertant colonies TA 100 [3] [number per plate] | production of malondialdehyde (MDA) (FIG. 8) [4]
1 | O=C(O)c1ccc(NC2O[C@H](CO)[C@@H](O)[C@H](O)[C@@H]2O)cc1 (stereo partly drawn) [Specimen No. 4, Sodium p-aminobenzoate-N--D-mannoside] | raising the level of intra-platelet cellular cyclic AMP | -5 | -20 | 0.155 | 133.6 ± 8.3 | 0.19 ± 0.04 | no hemorrhage in the stomach was found | 138 | suppressed the production of MDA
2 | O=C(O)c1ccc(NC2OC[C@@H](O)[C@H](O)[C@H]2O)cc1 (stereo partly drawn) [Specimen No. 7, Sodium p-aminobenzoate-N--D-xyloside] | raising the level of intra-platelet cellular cyclic AMP | 0 | -20 | 0.152 | 165.0 ± 11.0 | 0.22 ± 0.02 | no hemorrhage in the stomach was found | 58 | suppressed the production of MDA
3 | C[C@@H]1OC(Nc2ccc(C(=O)O)cc2)[C@H](O)[C@H](O)[C@H]1O (stereo partly drawn) [Specimen No. 8, Sodium p-aminobenzoate-N--L-rhamnoside] | raising the level of intra-platelet cellular cyclic AMP | 0 | -15 | 0.162 | 110.1 ± 5.5 | 0.18 ± 0.04 | no hemorrhage in the stomach was found | 73 | suppressed the production of MDA
